Results on 16 molecules are retold here after PMC3905599 (Chembiochem : a European journal of chemical biology, 2013).

Data set [1] addresses P-glycoprotein (Homo sapiens, UniProt P08183). The data set is classed as binding. Conditions: for inhibition at 20 μM / inhibition at 10 μM: human, pH 7.5.
The subject of data set [2] is P-gp. As to conditions: cited from earlier work.
The target in data set [3] is human P-gp (Homo sapiens, UniProt P08183). Kind of data set: Calcein-AM efflux. The data set is classed as cell-based.
The conditions of data set [4]: ongoing Phase III clinical trials; cited from earlier work.

Molecules are shown by their SMILES.

Chain of P-glycoprotein (P08183 whole entry): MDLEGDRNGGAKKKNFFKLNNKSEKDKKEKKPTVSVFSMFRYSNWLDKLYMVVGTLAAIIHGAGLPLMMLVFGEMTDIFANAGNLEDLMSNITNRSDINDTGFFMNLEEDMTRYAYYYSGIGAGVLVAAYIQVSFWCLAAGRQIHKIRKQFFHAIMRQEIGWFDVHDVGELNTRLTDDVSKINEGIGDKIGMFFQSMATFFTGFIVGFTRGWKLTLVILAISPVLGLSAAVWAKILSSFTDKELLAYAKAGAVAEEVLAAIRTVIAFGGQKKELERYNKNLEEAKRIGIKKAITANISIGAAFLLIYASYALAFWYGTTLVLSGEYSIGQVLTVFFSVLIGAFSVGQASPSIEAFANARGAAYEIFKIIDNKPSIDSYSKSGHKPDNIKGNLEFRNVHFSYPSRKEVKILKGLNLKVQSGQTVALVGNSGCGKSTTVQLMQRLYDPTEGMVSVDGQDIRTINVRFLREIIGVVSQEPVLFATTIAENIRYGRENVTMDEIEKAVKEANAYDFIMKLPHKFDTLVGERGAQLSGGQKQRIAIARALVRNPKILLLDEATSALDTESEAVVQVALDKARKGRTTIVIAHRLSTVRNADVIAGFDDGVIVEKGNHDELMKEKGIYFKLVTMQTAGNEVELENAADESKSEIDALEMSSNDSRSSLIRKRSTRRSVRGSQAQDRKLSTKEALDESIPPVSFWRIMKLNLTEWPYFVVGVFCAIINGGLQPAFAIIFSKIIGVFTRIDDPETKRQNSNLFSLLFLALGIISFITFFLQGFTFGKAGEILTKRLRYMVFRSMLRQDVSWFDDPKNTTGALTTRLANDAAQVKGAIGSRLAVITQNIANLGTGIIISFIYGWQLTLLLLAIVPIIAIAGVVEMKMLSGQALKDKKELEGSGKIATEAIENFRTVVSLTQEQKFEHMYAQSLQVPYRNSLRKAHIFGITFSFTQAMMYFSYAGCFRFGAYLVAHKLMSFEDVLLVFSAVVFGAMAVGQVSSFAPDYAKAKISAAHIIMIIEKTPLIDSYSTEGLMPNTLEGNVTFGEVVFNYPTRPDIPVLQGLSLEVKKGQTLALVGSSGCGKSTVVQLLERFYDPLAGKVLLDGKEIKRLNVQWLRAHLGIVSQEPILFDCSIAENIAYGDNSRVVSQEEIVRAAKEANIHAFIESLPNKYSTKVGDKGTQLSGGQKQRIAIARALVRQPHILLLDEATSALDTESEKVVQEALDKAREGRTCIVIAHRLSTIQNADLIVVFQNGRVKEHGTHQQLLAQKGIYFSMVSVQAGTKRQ
Chain of human P-gp (P08183 whole entry): as above

For the molecule `CCOC(=O)c1csc([C@@H](NC(=O)OC(C)(C)C)C(C)C)n1` [Compound 5, (S)-2-(1-tert-Butoxycarbonylamino-2-methylpropyl)thiazole-4-carboxylic acid ethyl ester], the inhibition – broadly, the share of the control response that was lost under treatment – at 20 μM in data set [1] came to 20%.
Consider `CCOC(=O)c1csc([C@@H](NC(=O)c2csc([C@@H](NC(=O)c3csc([C@@H](N)C(C)C)n3)C(C)C)n2)C(C)C)n1` [Compound 15, (S)-2-(1-{[2-(1-{[2-(1-Amino-2-methylpropyl)thiazole-4-carbonyl]amino}-(S)-2-methylpropyl)thiazole-4-carbonyl]amino}-(S)-2-methylpropyl)thiazole-4-carboxylic acid ethyl ester], for which, in data set [1], the inhibition at 10 μM turned out to be 91%.
In the case of `CC(C)[C@H](N)c1nc(C(=O)N[C@H](c2nc(C(=O)O)cs2)C(C)C)cs1` [Compound 12, (S)-2-(1-{[2-(1-Amino-2-methylpropyl)thiazole-4-carbonyl]amino}-(S)-2-methylpropyl)thiazole-4-carboxylic acid], the inhibition at 20 μM in data set [1] was determined as 23%.
With `CC(C)[C@@H]1NC(=O)c2c[se]c(n2)[C@H](C(C)C)NC(=O)c2c[se]c(n2)[C@H](C(C)C)NC(=O)c2c[se]c1n2` [QZ59Se-SSS], in data set [2], the “Potency relative to corresponding QZ59Se-RRR isomer” value is reported as “four-fold potent”.
On to `CCOC(=O)c1csc([C@@H](N)C(C)C)n1` [Compound 7, (S)-2-(1-Amino-2-methylpropyl)thiazole-4-carboxylic acid ethyl ester], for which the inhibition at 20 μM in data set [1] is less than 10%.
On the same count and under the same terms, next, `CCOC(=O)c1csc([C@@H](NC(=O)c2csc([C@@H](N)C(C)C)n2)C(C)C)n1` [Compound 11, (S)-2-(1-{[2-(1-Amino-2-methylpropyl)thiazole-4-carbonyl]amino}-(S)-2-methylpropyl)thiazole-4-carboxylic acid ethyl ester]: 87%.
Regarding `CCOC(=O)c1csc([C@@H](NC(=O)c2csc([C@@H](NC(=O)c3csc([C@@H](NC(=O)c4csc([C@@H](NC(=O)OC(C)(C)C)C(C)C)n4)C(C)C)n3)C(C)C)n2)C(C)C)n1` [Compound 18, (S)-2-(1-{[2-(1-{[2-(1-{[2-(1-tert-Butoxycarbonylamino-2-methylpropyl)thiazole-4-carbonyl]amino}-(S)-2-methylpropyl)thiazole-4-carbonyl]amino}-(S)-2-methylpropyl)thiazole-4-carbonyl]amino}-(S)-2-methylpropyl)thiazole-4-carboxylic acid ethyl ester], in data set [1], the inhibition at 10 μM was determined as 99%. Moreover, the “Decrease of cell based inhibitory activity as compared to homolog 13” value in data set [3] (10 μM, transport assays) is 1.6 fold.
For the molecule `CC(C)[C@H](NC(=O)OC(C)(C)C)c1nc(C(=O)O)cs1` [Compound 6, (S)-2-(1-tert-Butoxycarbonylamino-2-methylpropyl)thiazole-4-carboxylic acid], the inhibition at 20 μM in data set [1] was less than 10%.
As to `CC(C)[C@@H]1NC(=O)c2csc(n2)[C@H](C(C)C)NC(=O)c2csc(n2)[C@H](C(C)C)NC(=O)c2csc(n2)[C@H](C(C)C)NC(=O)c2csc1n2` [Compound 20, Cyclic Tetramer], the “[125I]-IAAP % Inhibition” value in data set [1] (tested conc. 10 μM, 4-6 nM [125I]-IAAP, High-Five insect cell membranes) worked out at 95%.
Take `CCOC(=O)c1csc([C@@H](NC(=O)c2csc([C@@H](NC(=O)OC(C)(C)C)C(C)C)n2)C(C)C)n1` [Compound 9, (S)-2-(1-{[2-(1-tert-Butoxycarbonylamino-2-methylpropyl)thiazole-4-carbonyl]amino}-(S)-2-methylpropyl)thiazole-4-carboxylic acid ethyl ester]: the inhibition at 20 μM in data set [1] stood at 87%. In addition, the IC50 – broadly, the point on the concentration scale where inhibition reaches its midpoint – in data set [3] was 20 µM.
Consider `CCOC(=O)c1csc([C@@H](NC(=O)c2csc([C@@H](NC(=O)c3csc([C@@H](NC(=O)OC(C)(C)C)C(C)C)n3)C(C)C)n2)C(C)C)n1` [Compound 13, (S)-2-(1-{[2-(1-{[2-(1-tert-Butoxycarbonylamino-2-methylpropyl)thiazole-4-carbonyl]amino}-(S)-2-methylpropyl)thiazole-4-carbonyl]amino}-(S)-2-methylpropyl) thiazole-4-carboxylic acid ethyl ester], for which the inhibition at 10 μM in data set [1] amounted to 91%.
On the same count and under the same terms, with `CC(C)[C@H](NC(=O)OC(C)(C)C)c1nc(C(=O)N[C@H](c2nc(C(=O)N[C@H](c3nc(C(=O)O)cs3)C(C)C)cs2)C(C)C)cs1` [Compound 14, (S)-2-(1-{[2-(1-{[2-(1-tert-Butoxycarbonylamino-2-methylpropyl)thiazole-4-carbonyl]amino}-(S)-2-methylpropyl)thiazole-4-carbonyl]amino}-(S)-2-methylpropyl)thiazole-4-carboxylic acid] the figure was 60%.
On to `C/C=C/C[C@@H](C)C(=O)[C@H]1C(=O)N[C@@H](C(C)C)C(=O)N(C)CC(=O)N(C)[C@@H](CC(C)C)C(=O)N[C@@H](C(C)C)C(=O)N(C)[C@@H](CC(C)C)C(=O)N[C@@H](C)C(=O)N[C@H](C)C(=O)N(C)[C@@H](CC(C)C)C(=O)N(C)[C@@H](CC(C)C)C(=O)N(C)[C@@H](C(C)C)C(=O)N1C` [valspodar], for which the Oral bioavailability result in data set [4] is listed as “very restricted oral bioavailability”.
`COc1ccc(CNC(=O)c2csc([C@@H](NC(=O)c3csc([C@@H](NC(=O)OC(C)(C)C)C(C)C)n3)C(C)C)n2)c(OC)c1` [Compound 23, [1-(4-{1-[4-(2,4-Dimethoxybenzylcarbamoyl)thiazol-2-yl]-(S)-2-methylpropylcarbamoyl}thiazol-2-yl)-(S)-2-methylpropyl]carbamic acid tert-butyl ester]: the inhibition at 10 μM in data set [1] turned out to be 95%.
`CC(C)[C@H](NC(=O)OC(C)(C)C)c1nc(C(=O)N[C@H](c2nc(C(=O)O)cs2)C(C)C)cs1` [Compound 10, (S)-2-(1-{[2-(1-tert-Butoxycarbonylamino-2-methylpropyl)thiazole-4-carbonyl]amino}-(S)-2-methylpropyl)thiazole-4-carboxylic acid] registered an inhibition at 20 μM in data set [1] of less than 10%.
On the same count and under the same terms, next, `CC(C)[C@H](N)c1nc(C(=O)O)cs1` [Compound 8, (S)-2-(1-Amino-2-methylpropyl)thiazole-4-carboxylic acid]: less than 10%.
